The supplement of paper PMC10307832

Experiments:
Test in all cases: relative viability (nuclei count vs DMSO), 5 days (fraction); higher = more cells survive
JZL-184 + Bortezomib = compound: C1CN(CCC1C(C2=CC3=C(C=C2)OCO3)(C4=CC5=C(C=C4)OCO5)O)C(=O)OC6=CC=C(C=C6)[N+](=O)[O-] [JZL-184] + CC(C)C[C@H](NC(=O)[C@H](Cc1ccccc1)NC(=O)c1cnccn1)B(O)O [Bortezomib] (partner 0.002 µM)
Outline: (§1)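 Values are medians from duplicate plates. Each reflects relative viability, defined as the nuclei count of treated wells over that of vehicle wells. Lung cancer cell lines in 1536-well plates were pin-tool dosed one day after seeding with one drug alone or with a fixed anchor-drug dose plus five library-drug doses (not always all listed) in √10 steps, then fixed, stained and imaged at 4× after 5 days.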

JZL-184 + OSI-027 = compound: C1CN(CCC1C(C2=CC3=C(C=C2)OCO3)(C4=CC5=C(C=C4)OCO5)O)C(=O)OC6=CC=C(C=C6)[N+](=O)[O-] [JZL-184] + COc1cccc2cc(-c3nc([C@H]4CC[C@H](C(=O)O)CC4)n4ncnc(N)c34)[nH]c12 [OSI-027] (partner 0.5 µM)
Outline: as §1

JZL-184 + Crizotinib = compound: C1CN(CCC1C(C2=CC3=C(C=C2)OCO3)(C4=CC5=C(C=C4)OCO5)O)C(=O)OC6=CC=C(C=C6)[N+](=O)[O-] [JZL-184] + C[C@@H](Oc1cc(-c2cnn(C3CCNCC3)c2)cnc1N)c1c(Cl)ccc(F)c1Cl [Crizotinib] (partner 1 µM)
Outline: as §1

JZL-184 + Pemetrexed = compound: C1CN(CCC1C(C2=CC3=C(C=C2)OCO3)(C4=CC5=C(C=C4)OCO5)O)C(=O)OC6=CC=C(C=C6)[N+](=O)[O-] [JZL-184] + Nc1nc2[nH]cc(CCc3ccc(C(=O)N[C@@H](CCC(=O)O)C(=O)O)cc3)c2c(=O)[nH]1 [Pemetrexed] (partner 0.2 µM)
Outline: as §1

JZL-184 + Decitabine = compound: C1CN(CCC1C(C2=CC3=C(C=C2)OCO3)(C4=CC5=C(C=C4)OCO5)O)C(=O)OC6=CC=C(C=C6)[N+](=O)[O-] [JZL-184] + Nc1ncn([C@H]2C[C@H](O)[C@@H](CO)O2)c(=O)n1 [Decitabine] (partner 2 µM)
Outline: as §1

| Cell Line | relative viability (JZL-184 + Bortezomib; first compound 0.04 µM) | relative viability (JZL-184 + Bortezomib; first compound 0.4 µM) | relative viability (JZL-184 + Bortezomib; first compound 1.265 µM) | relative viability (JZL-184 + Bortezomib; first compound 4 µM) | relative viability (JZL-184 + OSI-027; first compound 0.04 µM) | relative viability (JZL-184 + OSI-027; first compound 0.4 µM) | relative viability (JZL-184 + OSI-027; first compound 1.265 µM) | relative viability (JZL-184 + OSI-027; first compound 4 µM) | relative viability (JZL-184 + Crizotinib; first compound 0.04 µM) | relative viability (JZL-184 + Crizotinib; first compound 0.4 µM) | relative viability (JZL-184 + Crizotinib; first compound 1.265 µM) | relative viability (JZL-184 + Crizotinib; first compound 4 µM) | relative viability (JZL-184 + Pemetrexed; first compound 0.04 µM) | relative viability (JZL-184 + Pemetrexed; first compound 0.4 µM) | relative viability (JZL-184 + Pemetrexed; first compound 1.265 µM) | relative viability (JZL-184 + Pemetrexed; first compound 4 µM) | relative viability (JZL-184 + Decitabine; first compound 0.04 µM) | relative viability (JZL-184 + Decitabine; first compound 0.4 µM) | relative viability (JZL-184 + Decitabine; first compound 1.265 µM) | relative viability (JZL-184 + Decitabine; first compound 4 µM) |
| --- | --- | --- | --- | --- | --- | --- | --- | --- | --- | --- | --- | --- | --- | --- | --- | --- | --- | --- | --- | --- |
| 201T | 1.14 | 1.04 | 1.07 | 1.07 | 0.754 | 0.685 | 0.744 | 0.701 | 1.06 | 1.03 | 1.01 | 1.01 | 0.355 | 0.351 | 0.348 | 0.293 | 0.83 | 0.84 | 0.841 | 0.845 |
| A-427 | 1.05 | 0.965 | 1 | 0.918 | 0.469 | 0.435 | 0.479 | 0.474 | 1.03 | 0.907 | 0.914 | 0.77 | 1.03 | 0.971 | 1.06 | 0.886 | 0.617 | 0.585 | 0.599 | 0.537 |
| ABC-1 | 0.336 | 0.352 | 0.375 | 0.247 | 0.644 | 0.441 | 0.667 | 0.448 | 1.35 | 0.925 | 1.33 | 1.21 |  |  |  |  | 1.59 | 1.07 | 1.03 | 1.22 |
| BEN | 0.912 | 0.711 | 0.942 | 0.799 | 0.289 | 0.254 | 0.324 | 0.296 | 1 | 0.87 | 1.02 | 0.861 | 0.811 | 0.787 | 0.887 | 1.02 | 0.742 | 0.537 | 0.78 | 0.767 |
| CAL-12T | 1.15 | 0.942 | 1.18 | 1.08 | 0.897 | 0.648 | 0.673 | 0.614 | 0.993 | 0.607 | 0.621 | 0.497 | 1.4 | 0.997 | 1.22 | 1.08 |  |  |  |  |
| COR-L23 | 1.2 | 0.915 | 0.979 | 0.91 | 0.964 | 0.783 | 0.806 | 0.64 | 0.704 | 0.725 | 0.723 | 0.636 | 0.195 | 0.191 | 0.179 | 0.192 | 0.474 | 0.414 | 0.412 | 0.397 |
| COR-L 105 | 0.922 | 0.742 | 0.837 | 0.759 | 0.908 | 0.731 | 0.744 | 0.703 | 0.985 | 0.735 | 0.822 | 0.696 | 1.23 | 1.07 | 1.18 | 1.09 | 0.686 | 0.648 | 0.613 | 0.611 |
| ChaGo-K-1 | 1.45 | 0.984 | 1.1 | 1.03 | 0.637 | 0.63 | 0.635 | 0.555 | 1.31 | 1.08 | 1.08 | 1.06 | 0.262 | 0.257 | 0.256 | 0.266 | 0.505 | 0.498 | 0.514 | 0.526 |
| EKVX | 1.12 | 0.905 | 1.04 | 0.967 | 0.752 | 0.536 | 0.669 | 0.704 | 0.934 | 0.972 | 1.02 | 0.741 | 0.364 | 0.326 | 0.352 | 0.403 | 0.354 | 0.412 | 0.396 | 0.363 |
| EMC-BAC-2 | 1.2 | 1.02 | 1.16 | 1.07 | 0.368 | 0.375 | 0.396 | 0.343 | 0.939 | 0.726 | 0.785 | 0.704 | 0.452 | 0.423 | 0.454 | 0.473 | 1.02 | 0.946 | 0.958 | 0.944 |
| EPLC-272H | 1.03 | 0.735 | 1.06 | 0.839 | 0.311 | 0.259 | 0.35 | 0.351 | 1.03 | 0.814 | 1.93 | 1.03 | 0.316 | 0.22 | 0.351 | 0.319 | 0.356 | 0.386 | 0.396 | 0.384 |
| H3255 | 0.954 | 0.708 | 1.01 | 0.75 | 0.563 | 0.52 | 0.557 | 0.589 | 1.17 | 0.748 | 0.91 | 0.786 | 0.632 | 0.49 | 0.522 | 0.553 | 0.648 | 0.63 | 0.59 | 0.646 |
| HARA | 1.11 | 0.967 | 1.17 | 1.09 | 0.547 | 0.444 | 0.614 | 0.456 | 1.17 | 0.99 | 0.995 | 1.03 | 0.289 |  | 0.268 | 0.254 | 0.621 |  | 0.561 | 0.468 |
| HCC-15 | 1.11 | 0.987 | 1.03 | 0.995 | 0.727 | 0.635 | 0.742 | 0.677 | 0.944 | 0.808 | 0.883 | 0.762 | 0.222 | 0.217 | 0.212 | 0.23 | 0.625 | 0.692 | 0.647 | 0.575 |
| HCC-44 | 0.8 | 0.878 | 0.836 | 0.856 | 0.628 | 0.366 | 0.689 | 0.471 | 0.815 | 0.78 | 0.815 | 0.783 | 0.708 | 0.621 | 0.688 | 0.64 | 1.05 | 0.942 | 0.964 | 0.99 |
| HCC-78 | 0.384 | 0.521 | 0.667 | 0.516 | 0.348 | 0.326 | 0.379 | 0.382 | 0.34 | 0.317 | 0.359 | 0.341 | 0.895 |  | 0.875 | 0.919 | 0.77 |  | 0.793 | 0.646 |
